From patent US9695155B2, “Herbicidal substituted pyrimidinyloxy benzene compounds” (E. I. DU PONT DE NEMOURS AND COMPANY, priority 2013, dated 2017)

Tests used:
soybean = assay: Test C postemergence; type: in vivo, Glycine max; conditions: for Plant response rating (0 to 100), Soybean: 16 g ai/ha, 0 is no effect, 100 is complete control; for Soybean plant response rating: 31 g ai/ha; for Soybean plant response rating / Plant response rating, Soybean: scale 0 to 100 (0 no effect, 100 complete control)
Summary of the method: (§1)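 Visual injury score versus untreated controls, 0 = no effect, 100 = complete control, taken 13 to 15 days after treatment in the greenhouse. Pre-emergence pots held loam/sand; post-emergence plants grew in sphagnum peat/vermiculite mix and were sprayed at the 1- to 4-leaf stage.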

pigweed = assay: Test A postemergence; type: in vivo, Amaranthus retroflexus; conditions: 0 to 100 scale where 0 is no effect and 100 is complete control; for Pigweed plant response rating: 125 g ai/ha; for Plant response rating, Pigweed: 500 g ai/ha
Summary of the method: (§2)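 Visual injury scored 0–100 (100 = complete control) against untreated controls about 10 days after treatment in a greenhouse. Test chemicals, formulated with surfactant in non-phytotoxic solvent, were sprayed on soil preemergence or on 2-10 cm, one- to two-leaf plants postemergence.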

barnyardgrass [1] = assay: Test A preemergence; type: in vivo, Echinochloa crus-galli; conditions: for Barnyardgrass plant response rating: 500 g ai/ha
Summary of the method: as §2

large (Lg) crabgrass [2] = assay: Test C postemergence; type: in vivo, Digitaria sanguinalis; conditions: for Plant response rating (0 to 100), Crabgrass, Large: 16 g ai/ha, 0 is no effect, 100 is complete control; for Crabgrass, Large plant response rating: 31 g ai/ha; for Crabgrass, Large plant response rating / Plant response rating, Crabgrass, Large: scale 0 to 100 (0 no effect, 100 complete control)
Summary of the method: as §1

galium = assay: Test C postemergence; type: in vivo, Galium aparine; conditions: for Plant response rating (0 to 100), Galium: 16 g ai/ha, 0 is no effect, 100 is complete control; for Galium plant response rating: 31 g ai/ha; for Galium plant response rating / Plant response rating, Galium: scale 0 to 100 (0 no effect, 100 complete control)
Summary of the method: as §1

lambsquarters = assay: Test C postemergence; type: in vivo, Chenopodium album; conditions: for Plant response rating (0 to 100), Lambsquarters: 16 g ai/ha, 0 is no effect, 100 is complete control; for Lambsquarters plant response rating: 31 g ai/ha; for Lambsquarters plant response rating / Plant response rating, Lambsquarters: scale 0 to 100 (0 no effect, 100 complete control)
Summary of the method: as §1

large (Lg) crabgrass [3] = assay: Test A postemergence; type: in vivo, Digitaria sanguinalis; conditions: 0 to 100 scale where 0 is no effect and 100 is complete control; for Crabgrass, Large plant response rating: 125 g ai/ha; for Plant response rating, Crabgrass, Large: 500 g ai/ha
Summary of the method: as §2

Italian ryegrass = assay: Test C postemergence; type: in vivo, Lolium multiflorum; conditions: for Plant response rating (0 to 100), Ryegrass, Italian: 16 g ai/ha, 0 is no effect, 100 is complete control; for Ryegrass, Italian plant response rating: 31 g ai/ha; for Ryegrass, Italian plant response rating / Plant response rating, Ryegrass, Italian: scale 0 to 100 (0 no effect, 100 complete control)
Summary of the method: as §1

ragweed = assay: Test C postemergence; type: in vivo, Ambrosia elatior; conditions: for Plant response rating (0 to 100), Ragweed: 16 g ai/ha, 0 is no effect, 100 is complete control; for Ragweed plant response rating: 31 g ai/ha; for Ragweed plant response rating / Plant response rating, Ragweed: scale 0 to 100 (0 no effect, 100 complete control)
Summary of the method: as §1

rice = assay: Test B flooded paddy test; type: in vivo, Oryza sativa; conditions: Flood, 250 g ai/ha; 0 to 100 scale where 0 is no effect and 100 is complete control
Summary of the method: (§3)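 2-leaf stage plants; pots flooded to 3 cm, compound added to paddy water, depth maintained. Greenhouse 13–15 d. Visual rating vs untreated controls, 0 (no effect) to 100 (complete control); dash = no result.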

barnyardgrass [4] = assay: Test C postemergence; type: in vivo, Echinochloa crus-galli; conditions: for Plant response rating (0 to 100), Barnyardgrass: 16 g ai/ha, 0 is no effect, 100 is complete control; for Barnyardgrass plant response rating: 31 g ai/ha, 13 to 15 days; for Barnyardgrass plant response rating / Plant response rating, Barnyardgrass: scale 0 to 100 (0 no effect, 100 complete control)
Summary of the method: as §1

sedge, umbrella = assay: Test B flooded paddy test; type: in vivo, Cyperus difformis; conditions: Flood, 250 g ai/ha; 0 to 100 scale where 0 is no effect and 100 is complete control
Summary of the method: as §3

yellow nutsedge = assay: Test C postemergence; type: in vivo, Cyperus esculentus; conditions: for Plant response rating (0 to 100), Nutsedge, Yellow: 16 g ai/ha, 0 is no effect, 100 is complete control; for Nutsedge, Yellow plant response rating: 31 g ai/ha; for Nutsedge, Yellow plant response rating / Plant response rating, Nutsedge, Yellow: scale 0 to 100 (0 no effect, 100 complete control)
Summary of the method: as §1

blackgrass = assay: Test C postemergence; type: in vivo, Alopecurus myosuroides; conditions: for Plant response rating (0 to 100), Blackgrass: 16 g ai/ha, 0 is no effect, 100 is complete control; for Blackgrass plant response rating: 31 g ai/ha; for Blackgrass plant response rating / Plant response rating, Blackgrass: scale 0 to 100 (0 no effect, 100 complete control)
Summary of the method: as §1

wheat = assay: Test A preemergence; type: in vivo, Triticum aestivum; conditions: for Wheat plant response rating (0 to 100 scale): 125 g ai/ha; for Wheat plant response rating: 500 g ai/ha, 0 to 100 scale where 0 is no effect and 100 is complete control
Summary of the method: as §2

[5] = postemergence, visual rating, 13 to 15 days
[6] = 125 g ai/ha, postemergence, visual rating
[7] = 0 to 100 scale where 0 is no effect and 100 is complete control
[8] = Postemergence, 62 g ai/ha, 13 to 15 days

SMILES: Fc1cnc(Oc2cccc(C(F)F)c2-n2cc(C(F)(F)F)cn2)nc1 [Compound 164]
- Plant response rating (0 to 100), Soybean (soybean; postemergence): 40
- Soybean plant response rating (soybean; [5]): 35
- Plant response rating, Soybean (soybean; [6]): 65
- Plant response rating, Soybean (soybean; Postemergence, 62 g ai/ha): 75
- Pigweed plant response rating (pigweed): 100
- Plant response rating, Pigweed (pigweed): 100
- Plant response rating, Barnyardgrass (barnyardgrass [1]; 125 g ai/ha, 0 to 100 scale where 0 is no effect and 100 is complete control): 90
- Barnyardgrass plant response rating (barnyardgrass [1]; [7]): 100
- Plant response rating (0 to 100), Crabgrass, Large (large (Lg) crabgrass [2]; postemergence): 5
- Crabgrass, Large plant response rating (large (Lg) crabgrass [2]; [5]): 5
- Plant response rating, Crabgrass, Large (large (Lg) crabgrass [2]; [6]): 10
- Plant response rating, Crabgrass, Large (large (Lg) crabgrass [2]; Postemergence, 62 g ai/ha): 5
- Plant response rating (0 to 100), Galium (galium; postemergence): 50
- Galium plant response rating (galium; [5]): 55
- Plant response rating, Galium (galium; [6]): 65
- Plant response rating, Galium (galium; Postemergence, 62 g ai/ha): 80
- Plant response rating (0 to 100), Lambsquarters (lambsquarters; postemergence): 15
- Lambsquarters plant response rating (lambsquarters; [5]): 25
- Plant response rating, Lambsquarters (lambsquarters; [6]): 65
- Plant response rating, Lambsquarters (lambsquarters; Postemergence, 62 g ai/ha): 40
- Crabgrass, Large plant response rating (large (Lg) crabgrass [3]): 80
- Plant response rating, Crabgrass, Large (large (Lg) crabgrass [3]): 100
- Plant response rating (0 to 100), Ryegrass, Italian (Italian ryegrass; postemergence): 0
- Ryegrass, Italian plant response rating (Italian ryegrass; [5]): 0
- Plant response rating, Ryegrass, Italian (Italian ryegrass; [6]): 0
- Plant response rating, Ryegrass, Italian (Italian ryegrass; Postemergence, 62 g ai/ha): 0
- Plant response rating (0 to 100), Ragweed (ragweed; postemergence): 20
- Ragweed plant response rating (ragweed; [5]): 15
- Plant response rating, Ragweed (ragweed; [6]): 55
- Plant response rating, Ragweed (ragweed; Postemergence, 62 g ai/ha): 60
- Plant response rating, Rice (rice): 0
- Plant response rating (0 to 100), Barnyardgrass (barnyardgrass [4]; postemergence): 0
- Barnyardgrass plant response rating (barnyardgrass [4]; postemergence, visual rating): 0
- Plant response rating, Barnyardgrass (barnyardgrass [4]; [6]): 5
- Plant response rating, Barnyardgrass (barnyardgrass [4]; Postemergence, 62 g ai/ha): 5
- Plant response rating, Sedge, Umbrella (sedge, umbrella): 90
- Plant response rating (0 to 100), Nutsedge, Yellow (yellow nutsedge; postemergence): 5
- Nutsedge, Yellow plant response rating (yellow nutsedge; [5]): 5
- Plant response rating, Nutsedge, Yellow (yellow nutsedge; [6]): 5
- Plant response rating, Nutsedge, Yellow (yellow nutsedge; Postemergence, 62 g ai/ha): 5
- Plant response rating (0 to 100), Blackgrass (blackgrass; postemergence): 0
- Blackgrass plant response rating (blackgrass; [5]): 0
- Plant response rating, Blackgrass (blackgrass; [6]): 15
- Plant response rating, Blackgrass (blackgrass; Postemergence, 62 g ai/ha): 5
- Wheat plant response rating (0 to 100 scale) (wheat): 20
- Wheat plant response rating (wheat): 90

SMILES: Clc1cnc(Oc2cccc(Br)c2-n2cc(Cl)cn2)nc1 [Compound 221]
- Plant response rating (0 to 100), Soybean (soybean; postemergence): 30
- Soybean plant response rating (soybean; [5]): 55
- Plant response rating, Soybean (soybean; [6]): 80
- Plant response rating, Soybean (soybean; [8]): 65
- Pigweed plant response rating (pigweed): 100
- Plant response rating, Pigweed (pigweed): 100
- Barnyardgrass plant response rating (0 to 100 scale, 0 is no effect, 100 is complete control) (barnyardgrass [1]; 125 g ai/ha): 10
- Barnyardgrass plant response rating (barnyardgrass [1]; [7]): 90
- Plant response rating (0 to 100), Crabgrass, Large (large (Lg) crabgrass [2]; postemergence): 5
- Crabgrass, Large plant response rating (large (Lg) crabgrass [2]; [5]): 5
- Plant response rating, Crabgrass, Large (large (Lg) crabgrass [2]; [6]): 25
- Plant response rating, Crabgrass, Large (large (Lg) crabgrass [2]; [8]): 5
- Plant response rating (0 to 100), Galium (galium; postemergence): 60
- Galium plant response rating (galium; [5]): 55
- Plant response rating, Galium (galium; [6]): 90
- Plant response rating, Galium (galium; [8]): 55
- Plant response rating (0 to 100), Lambsquarters (lambsquarters; postemergence): 15
- Lambsquarters plant response rating (lambsquarters; [5]): 60
- Plant response rating, Lambsquarters (lambsquarters; [6]): 65
- Plant response rating, Lambsquarters (lambsquarters; [8]): 50
- Crabgrass, Large plant response rating (large (Lg) crabgrass [3]): 60
- Plant response rating, Crabgrass, Large (large (Lg) crabgrass [3]): 100
- Plant response rating (0 to 100), Ryegrass, Italian (Italian ryegrass; postemergence): 0
- Ryegrass, Italian plant response rating (Italian ryegrass; [5]): 0
- Plant response rating, Ryegrass, Italian (Italian ryegrass; [6]): 5
- Plant response rating, Ryegrass, Italian (Italian ryegrass; [8]): 5
- Plant response rating (0 to 100), Ragweed (ragweed; postemergence): 5
- Ragweed plant response rating (ragweed; [5]): 5
- Plant response rating, Ragweed (ragweed; [6]): 10
- Plant response rating, Ragweed (ragweed; [8]): 20
- Plant response rating, Rice (rice): 0
- Plant response rating (0 to 100), Barnyardgrass (barnyardgrass [4]; postemergence): 5
- Barnyardgrass plant response rating (barnyardgrass [4]; postemergence, visual rating): 5
- Plant response rating, Barnyardgrass (barnyardgrass [4]; [6]): 10
- Plant response rating, Barnyardgrass (barnyardgrass [4]; Postemergence, 62 g ai/ha): 5
- Plant response rating, Sedge, Umbrella (sedge, umbrella): 0
- Plant response rating (0 to 100), Nutsedge, Yellow (yellow nutsedge; postemergence): 0
- Nutsedge, Yellow plant response rating (yellow nutsedge; [5]): 0
- Plant response rating, Nutsedge, Yellow (yellow nutsedge; [6]): 10
- Plant response rating, Nutsedge, Yellow (yellow nutsedge; [8]): 5
- Plant response rating (0 to 100), Blackgrass (blackgrass; postemergence): 0
- Blackgrass plant response rating (blackgrass; [5]): 0
- Plant response rating, Blackgrass (blackgrass; [6]): 5
- Plant response rating, Blackgrass (blackgrass; [8]): 5
- Wheat plant response rating (0 to 100 scale) (wheat): 0
- Wheat plant response rating (wheat): 10
